Data as given in US20100184676A1, “USE OF A PEPTIDE AS A THERAPEUTIC AGENT” (priority 2007, published 2010).

How the values were obtained:
[1] = system: HepG2-2.2.15 cells; experiment: Cell viability (dye uptake) in HBV assay; assay type: cell-based; conditions: peptide 10 micrograms per ml
Experimental: (§1) HepG2-2.2.15 cells were plated in 96-well microtiter plates. After 16-24 hours the confluent monolayer of HepG2-2.2.15 cells was washed and the medium was replaced with complete medium containing test peptide—10 micrograms per ml—in duplicate. Lamivudine (3TC) was used as the positive control, while media alone was added to the cells as a negative control (virus control). Three days later the culture medium was replaced with fresh medium containing the peptide. Six days following the initial administration of the peptide, the cell culture supernatants was collected, treated with pronase and DNAse and then used in a real-time quantitative TaqMan PCR assay. The PCR-amplified HBV DNA was detected in real-time by monitoring increases in fluorescence signals that result from the exonucleolytic degradation of a quenched fluorescence probe molecule that hybridizes to the amplified HBV DNA. For each PCR amplification, a standard curve was simultaneously generated using dilutions of purified HBV DNA. Antiviral activity was calculated from the reduction in HBV DNA levels (% virus control). A novel dye uptake assay was then employed to measure cell viability, which is used to calculate toxicity (% cell control).

[2] = system: CEM-SS cells; experiment: Cytotoxicity (MTS cell viability) in HIV-1 experiments; conditions: peptide 10 micrograms per ml
[3] = system: HIV-1IIIB; experiment: HIV-1 antiviral assay (CPE reduction, MTS) in CEM-SS cells; assay type: cell-based; conditions: peptide 10 micrograms per ml, 6 days post-infection
[4] = system: A549 cells; experiment: Apoptosis induction assay (Annexin-5); assay type: cell-based, human; conditions: 24 hours
[5] = system: Human Peripheral Blood Mononuclear Cells (PBMC); experiment: B cell proliferation assay (SAC plus Interleukin-2, 3H-thymidine); assay type: cell-based; conditions: peptide 10 micrograms per ml, 3H-thymidine incorporation
[6] = system: RAW 264.7 cells; experiment: Phagocytosis assay (Fluorescein-labeled Escherichia coli); assay type: cell-based, mouse; conditions: peptide 10 micrograms per ml, flow cytometry
[7] = system: Human Peripheral Blood Mononuclear Cells (PBMC); experiment: T cell proliferation assay (PHA, 3H-thymidine); assay type: cell-based; conditions: peptide 10 micrograms per ml, 3H-thymidine incorporation
[8] = in vitro; conditions: human, MRC-5 cells
[9] = in vitro; conditions: human, CEM-SS cells
[10] = Cell viability (dye uptake) in HBV assay; assay type: cell-based; conditions: human, HepG2-2.2.15 cells, peptide 10 micrograms per ml
Experimental: as §1

[11] = system: spleen cells; experiment: Th1/Th2 cytokine profiling assay; assay type: cell-based, Balb/c mice; conditions: Ovalbumin restimulation; peptide 10 micrograms per ml; 72 hours
[12] = system: A549 cells; experiment: Propidium iodide cell cycle assay; assay type: cell-based, human; conditions: 24 hours, peptide 10 micrograms per ml, FACS
Description: Disregulation of the cell cycle components may lead to tumor formation.

[13] = system: TNF alpha; experiment: TNF alpha production assay (LPS-stimulated macrophages, ELISA); assay type: cell-based, human; conditions: macrophages from PBMC, peptide 10 micrograms per ml, lipopolysaccharide 200 ng/ml, overnight
Description: Not stimulated macrophages served as negative background control.

[14] = system: Streptococcus pneumoniae; assay type: cell-based; conditions: 5 micrograms per ml
[15] = system: hepatitis B virus (HBV) ayw strain; experiment: HBV experimental assay system (secreted HBV DNA, TaqMan PCR); assay type: cell-based; conditions: peptide 10 micrograms per ml; six days; HBV DNA in supernatant
Experimental: HepG2-2.2.15 is a stable cell line containing the hepatitis B virus (HBV) ayw strain genome (ATCC Cat. No. CRL-11997). Antiviral compounds blocking any late step of viral replication such as transcription, translation, pregenome encapsidation, reverse transcription, particle assembly and release can be identified and characterized using this cell line.
as §1, with “Lamivudine (3TC) was used as the positive control, while media alone was added to the cells as a negative control (virus control).” left out, “A novel dye uptake assay was then employed to measure cell viability, which is used to calculate toxicity (% cell control).” left out

[16] = system: HCMV strain AD169; experiment: HCMV plaque reduction assay in MRC-5 cells; conditions: HCMV AD169 in MRC-5 cells; peptide 10 micrograms per ml; 7-10 days
[17] = system: HUVEC; experiment: Endothelial tube formation assay; assay type: cell-based, human; conditions: peptide 10 micrograms per ml, 20 hours, average tubule length
Description: Positive control was vehicle only.

[18] = system: A549 cells; experiment: Apoptosis prevention assay (C2 ceramide, Annexin-5); assay type: cell-based, human; conditions: A549 cells pretreated 30 min, peptide 10 micrograms per ml
[19] = system: Primary Human endothelial cells (HUVEC); experiment: Endothelial cell migration assay; assay type: cell-based; conditions: peptide 10 micrograms per ml, 22 hours
[20] = system: MRSA; conditions: 5 micrograms per ml
[21] = system: Pseudomonas aeruginosa; assay type: cell-based; conditions: 5 micrograms per ml
[22] = system: MRC-5 cells; conditions: human, 6 days

With Nc1ccn([C@@H]2CS[C@H](CO)O2)c(=O)n1 [3TC, Lamivudine, reference compound] as the molecule, how does the “% Cell viability” value [1] read?
The value was 95.8%.

Which results are given for Cc1cn([C@H]2C[C@H](N=[N+]=[N-])[C@@H](CO)O2)c(=O)[nH]c1=O [AZT]?
% Cell viability [2]: 97%; % CPE reduction in HIV-1 infected CEM-SS cells [3]: 99%

For CC[C@H](C)[C@H](NC(=O)[C@H](CCC(N)=O)NC(=O)[C@H](Cc1c[nH]cn1)NC(=O)[C@H](C)NC(=O)[C@H](CC(C)C)NC(=O)[C@H](CCCCN)NC(=O)[C@H](CCC(N)=O)NC(=O)[C@@H](NC(=O)[C@@H](NC(=O)[C@@H]1CSSC[C@H](NC(=O)CNC(=O)[C@H](Cc2ccccc2)NC(=O)[C@H](CO)NC(=O)[C@H](CCCNC(=N)N)NC(=O)[C@H](CC(C)C)NC(=O)CNC(=O)[C@H](CCC(N)=O)NC(=O)[C@H](Cc2ccccc2)NC(=O)[C@H](CC(N)=O)NC(=O)[C@H](CC(N)=O)NC(=O)[C@H](CCSC)NC(=O)[C@H](CO)NC(=O)[C@H](CCC(N)=O)NC(=O)[C@H](CCCNC(=N)N)NC(=O)[C@@H](N)Cc2ccc(O)cc2)C(=O)N[C@@H](CCCNC(=N)N)C(=O)N[C@@H](Cc2ccccc2)C(=O)NCC(=O)N[C@@H]([C@@H](C)O)C(=O)N1)[C@@H](C)O)C(C)C)C(=O)N[C@@H](Cc1ccc(O)cc1)C(=O)N[C@@H](CCC(N)=O)C(=O)N[C@@H](Cc1ccccc1)C(=O)N[C@H](C(=O)N[C@@H](CC(=O)O)C(=O)N[C@@H](CCCCN)C(=O)N[C@@H](CC(=O)O)C(=O)N[C@@H](CCCCN)C(=O)N[C@@H](CC(=O)O)C(=O)N[C@@H](CC(N)=O)C(=O)N[C@H](C(=O)N[C@@H](C)C(=O)N1CCC[C@H]1C(=O)N[C@@H](CCCNC(=N)N)C(=O)N[C@@H](CO)C(=O)N[C@@H](CCCCN)C(=O)N[C@H](C(=O)N[C@@H](CO)C(=O)N1CCC[C@H]1C(=O)N[C@@H](CCC(N)=O)C(=O)NCC(=O)N[C@@H](Cc1ccc(O)cc1)C(N)=O)[C@@H](C)CC)C(C)C)[C@@H](C)O [Adrenomedullin], which “% of induction” value [4] is on record?
The value was 1.5%.

What about the “% of SAC/IL2 induced control” value [5] of the same molecule?
The value was 111.0%.

What about the “% of control phagocytosis” value [6] of the same molecule?
The value was 108.8%.

And the “% of PHA induced control” value [7]?
The value was 107.1%.

And the viability at 144 h [8]?
Its viability at 144 h is 100%.

And the viability at 10 micrograms per ml [9]?
Its viability at 10 micrograms per ml is 92.9%.

What about the viability at 144 h, 10 micrograms per ml [10] of the same molecule?
The viability at 144 h, 10 micrograms per ml was 100%.

What about the “IFNγ spleen cells; TH1 response (% of control)” value [11] of the same molecule?
Its value is 24.5 % of control.

What about the “IL-2 spleen cells (% of control)” value [11] of the same molecule?
Its value is 0.0 % of control.

What about the “IL-4 spleen cells; TH2 response (% of control)” value [11] of the same molecule?
Its value is 0.0 % of control.

And the “IL-5 spleen cells; TH2 response (% of control)” value [11]?
Its value is 28.1 % of control.

What about the “TNF-a spleen cells; TH1 response (% of control)” value [11] of the same molecule?
The value was 66.7 % of control.

What about the “Cell cycle analysis G0/G1” value [12] of the same molecule?
Its value is 57.8.

What about the “Cell cycle analysis G2/M” value [12] of the same molecule?
Its value is 9.5.

What about the “Cell cycle analysis S” value [12] of the same molecule?
Its value is 32.7.

What about the “% of LPS induction” value [13] of the same molecule?
The value was 100.9%.

And the “% inhibition” value [14]?
Its value is 0.0%.

And the “% inhibition of HBV replication in HEP G2 cells” value [15]?
The value was 0.0%.

What about the “% CPE reduction in HIV-1 infected CEM-SS cells” value [3] of the same molecule?
The value was 0.0%.

And the “% plaque reduction” value [16]?
The value was 0.0%.

And the “% inhibition of tube formation” value [17]?
The value was 26%.

And the “% prevention of ceramide induced apoptosis” value [18]?
Its value is 0.0%.

And the “% inhibition of migration” value [19]?
The value was −34%.

What about the “% inhibition” value [20] of the same molecule?
Its value is 0.0%.

And the “% inhibition” value [21]?
Its value is 0.0%.

With Nc1nc(O)c2ncn(COC(CO)CO)c2n1 [Ganciclovir, reference compound] as the molecule, how does the “% Cell viability” value [22] read?
Its value is 100%.

What about the “% plaque reduction” value [16] of the same molecule?
The value was 100%.

With CC(C)(C)NC(=O)[C@@H]1CN(Cc2cccnc2)CCN1C[C@@H](O)C[C@@H](Cc1ccccc1)C(=O)N[C@H]1c2ccccc2C[C@H]1O [Indinavir, indinavir] as the molecule, how does the “% CPE reduction in HIV-1 infected CEM-SS cells” value [3] read?
The value was 100%.
